The values that follow come from US8134017B1, “Compound and use thereof” (Riken, priority 2010, dated 2012).

Several values for one entry are separate records, joined by “and”; a condition that tells them apart may be missing. Identical values can stand only once.

Format in all cases: physicochemical
Data set [1] is described as follows: UV-vis absorption spectra. To be noted: 5 M, strong acid TFA/THF mixtures, cationic form. The procedure: (§1) UV-vis spectra were collected on a SHIMADZU UV-1700 spectrophotometer at RT (room temperature) using a 1 cm or a 0.1 cm quartz cuvette. Emission spectra were collected on a HITACHI F-4500 fluorescence spectrophotometer. To obtain an accurate spectrum, spectrum correction was carried out with rhodamine B concentrated solution and a secondary-standard light source. In surface photometry, a cut filter was utilized to eliminate multiple lights, such as secondary light, due to the effects of light scattering. Fluorescence spectra of all samples were measured with excitation with 365 nm. Average particle size was measured by dynamic light scattering (ELSZ-2, Otsuka Electronics).
What molecular species of ABPX are appropriate for the evaluation of AIEE in solution was examined. In order to examine to find the appropriate ABPX01 species, the absorbance spectra of […] of ABPX01 were measured in acid or alkaline solution. In THF solution and 1% TEA/THF mixture, the spectra had no peaks that were attributable to the neutral lactonoid species ABPX01^0. In the strong acid solutions of the TFA/THF mixtures, the absorbance spectra having two peaks at 490 nm and 540 nm should be attributable to the cationic form of ABPX01^+. ABPX01^+ is a quinonoid form delocalized over the luminophore and is therefore appropriate for the emission analysis.
The emission spectra are shown in (a) and (b) of FIG. 13. […]

Data set [2] is described as follows: Particle size of aggregates by dynamic laser scattering (DLS). To be noted: 500 μM, 90% water/THF (1% TFA), 25° C. The procedure: as §1
With the use of dynamic laser scattering (DLS), the particle size of ABPX01^+ was examined in 90% water/THF mixtures (containing 1% TFA) at 25° C. […] As illustrated in (b) of FIG. 14, the particle size of ABPX01^+ aggregates was 500 nm immediately after the preparation of ABPX01^+. The ABPX01^+ aggregates then grew to a size of more than 1200 nm after 30 min. The particle size of ABPX01^+ in methanol and chloroform (respectively, containing 1% TFA) could not be calculated because the fluctuation of the scattered photons was not sufficiently observed owing to the subnanometer size.

The nature of data set [3]: Emission spectra, aggregation-induced emission enhancement (AIEE). The procedure:
as §1
In contrast, the emission behavior of rhodamines in aqueous solution was reported to decrease at 10^−4 M and above because of the formation of the H-dimer. The behavior of ABPX01^+ was directly opposite to the concentration quenching of common hydrophobic dyes.
The AIEE characteristics of 500 μM of ABPX01^+ to ABPX04^+ were investigated in various solvents. […] The emission spectrum of 500 μM of ABPX01^+ in THF was nonemissive.
The problem was solved by using the surface photometric method (FIG. 12). Explained below are the respective surface photometric equipment configurations. […] The problem was solved by using the surface photometric method. A sample holder was set at an angle of 30° with respect to the excitation light. However, attention should be paid to the linearity of the emission intensity against the concentration for the accurate evaluation of high-concentration sample solutions, such as AIEE molecules. In addition, the relative quantum yields of ABPX in solution could not be determined because of the lack of a standard compound. The use of the surface photometric method allows development of an apparatus for the measurement of the absolute fluorescence quantum yields of high-concentration solutions.
The emission spectra are shown in (a) and (b) of FIG. 13. The emission could be observed when 30% volume fraction of water was added. The emission was enhanced when 50% to 90% volume fraction of water was added. Absorption measurements were similarly carried out in water/THF mixtures (containing 1% TFA). As the water fraction increased, the sharp aggregate spectra appearing at approximately 548 and 600 nm grew, as shown in (c) of FIG. 13. From 30% volume fraction of water addition, level-off tails were seen, which were attributed to Mie scattering caused by nanosized particles.
In order to check whether or not restriction of […] rotation (RIR) is involved in AIEE of ABPX01^+, viscochromism and thermochromism of the ABPX01^+ emission were examined. RIR was affected by the viscosity and temperature of the solvent. […] ABPX01^+ inhibited intramolecular rotation and induced AIEE at high viscosity and low temperature.

The nature of data set [4]: Solubility in organic solvents and water.

As to “3′,3″-Bis (oxospriroisobenzofuran)-3,7-bis(diethylamino)benzopyranoxanthene [ABPX01]”, in data set [1], the absorbance peaks was 490 nm and 540 nm. In addition, the “particle size of aggregates” value is given as “more than 1200 nm” in data set [2] (after 30 min) and 500 nm in data set [2] (immediately after preparation). Moreover, the AIEE entry in data set [3] (500 μM in 1% TFA/chloroform, methanol, ethanol or acetone) is “exhibited AIEE”. Besides, the “emission in THF” value in data set [3] (500 μM in THF) was “nonemissive”. For the same substance, the “volume fraction of water at which emission could be observed” value in data set [3] (500 μM, water/THF mixtures) was 30%. In addition, the “emission intensity with increasing concentration” value in data set [3] (5, 50, 500 μM in 1% TFA/methanol, excitation 365 nm) is “increased”. Also, the “emission with increasing solvent viscosity or decreasing temperature” value in data set [3] (glycerol/methanol viscosity increased or methanol temperature decreased) is listed as “increased”. For the same substance, the “solubility in THF” value in data set [4] (THF) was “easily dissolved”. The “solubility in organic solvents” value in data set [4] (chloroform, methanol, acetone, THF, ethanol) is recorded as “easy to dissolve”. The solubility in water entry in data set [4] was “not easy to dissolve”; in data set [4] (listed as ABPX01^+) it was “not in water”.
